Legend:
[1] = target: T1, human B1R (Homo sapiens, UniProt P46663); assay: Functional investigation on the bradykinin 1 receptor (B1R), cell-based fluorescent calcium-mobilization assay (FLIPR/Novostar), human; conditions: 10 μM test substance; CHO K1 cells stably transfected with human B1R gene; agonist Lys-Des-Arg9-bradykinin at EC80; % inhibition compared with maximum achievable inhibition; read-out: B1R antagonism, human [10 μM] % inhibition
T1 construct: expressed in transfected cells; host or cells: CHO K1 cells
T1 sequence (P46663 1-353): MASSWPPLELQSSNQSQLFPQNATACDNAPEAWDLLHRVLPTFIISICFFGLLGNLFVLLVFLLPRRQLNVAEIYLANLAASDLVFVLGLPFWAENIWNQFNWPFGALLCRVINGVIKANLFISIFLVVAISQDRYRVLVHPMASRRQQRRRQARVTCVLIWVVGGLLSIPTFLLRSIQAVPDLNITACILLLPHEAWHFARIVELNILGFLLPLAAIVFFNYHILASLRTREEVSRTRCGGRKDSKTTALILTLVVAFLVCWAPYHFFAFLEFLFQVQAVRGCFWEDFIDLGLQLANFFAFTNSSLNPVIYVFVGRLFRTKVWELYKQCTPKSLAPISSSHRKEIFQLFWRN
How it was run: (§1)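 Stably transfected CHO K1 cells loaded with Fluo-4-AM; fluorescence peak read by FLIPR/Novostar (ex 488, em 540 nm). Test compounds at 10 μM give % activation vs Lys-Des-Arg9-BK (human) or Des-Arg9-BK (rat); after 6-20 min, agonist added at EC80 and % inhibition vs maximum achievable inhibition derived.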

[2] = target: T2, B1R of rats (Rattus norvegicus, UniProt P97583); assay: Functional investigation on the bradykinin 1 receptor (B1R), cell-based fluorescent calcium-mobilization assay (FLIPR/Novostar), rat; conditions: 10 μM test substance; CHO K1 cells stably transfected with rat B1R gene; agonist Des-Arg9-bradykinin at EC80; % inhibition compared with maximum achievable inhibition; read-out: B1R antagonism, rat [10 μM] % inhibition
T2 construct: expressed in transfected cells; host or cells: CHO K1 cells
T2 sequence (P97583 1-337): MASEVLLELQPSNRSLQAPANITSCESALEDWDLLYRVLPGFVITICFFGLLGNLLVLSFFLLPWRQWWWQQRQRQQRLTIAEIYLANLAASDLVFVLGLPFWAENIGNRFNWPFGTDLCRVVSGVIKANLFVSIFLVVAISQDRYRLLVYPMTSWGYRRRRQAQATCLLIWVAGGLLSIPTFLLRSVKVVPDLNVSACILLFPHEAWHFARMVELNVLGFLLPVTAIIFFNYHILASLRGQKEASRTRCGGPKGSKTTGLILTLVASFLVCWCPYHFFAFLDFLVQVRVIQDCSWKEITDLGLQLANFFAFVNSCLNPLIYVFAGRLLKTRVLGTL
How it was run: as §1

inhibition at 10 µM [1] [%] | inhibition at 10 µM [2] [%] | Structure (SMILES)
100 | 99 | O=C(NCC1(N2CCN(C3CC3)CC2)CCN(C(=O)COCCN(C2CC2)S(=O)(=O)c2ccccc2C(F)(F)F)CC1)c1ccncc1 [Example 47, N-((1-(2-(2-(N-Cyclopropyl-2-(trifluoromethyl)phenylsulfonamido)ethoxy)acetyl)-4-(4-cyclopropylpiperazin-1-yl)piperidin-4-yl)methyl)isonicotinamide]
103 | 100 | Cc1cc(S(=O)(=O)N2CCCCC2CCC(=O)N2CCC(CNC(=O)c3cccnc3)(N3CCN(C)CC3)CC2)c(C)cc1Cl (stereo not shown) [Example 33, N-((1-(3-(1-(4-chloro-2,5-dimethylphenylsulfonyl)piperidin-2-yl)propanoyl)-4-(4-methylpiperazin-1-yl)piperidin-4-yl)methyl)nicotinamide]
103 | 101 | COc1cc(C)c(S(=O)(=O)N(C)CCOCC(=O)N2CCC(CNC(=O)Cc3ccccc3)(N3CCN(C)CC3)CC2)c(C)c1 [Example 15, N-((1-(2-(2-(4-methoxy-N,2,6-trimethylphenylsulfonamido)ethoxy)acetyl)-4-(4-methylpiperazin-1-yl)piperidin-4-yl)methyl)-2-phenylacetamide]
101 | 39 | Cc1cc(S(=O)(=O)N2CCCCC2CCC(=O)N2CCC(CNC(=O)Cc3ccccc3)(N3CCN(C)CC3)CC2)c(C)cc1Cl (stereo not shown) [Example 10, N-((1-(3-(1-(4-chloro-2,5-dimethylphenylsulfonyl)piperidin-2-yl)propanoyl)-4-(4-methylpiperazin-1-yl)piperidin-4-yl)methyl)-2-phenylacetamide]
100 | 102 | COc1cc(C)c(S(=O)(=O)N2c3ccccc3C[C@H]2COCC(=O)N2CCC(CNC(=O)c3ccncc3)(N3CCN(C4CC4)CC3)CC2)c(C)c1 [Example 45, (S)—N-((4-(4-Cyclopropylpiperazin-1-yl)-1-(2-((1-(4-methoxy-2,6-dimethylphenylsulfonyl)indolin-2-yl)methoxy)acetyl)piperidin-4-yl)methyl)isonicotinamide]
75 | 29 | CN1CCN(C2(CNC(=O)Cc3ccccc3)CCN(C(=O)CC(NS(=O)(=O)c3ccc4ccccc4c3)c3ccccc3)CC2)CC1 (stereo not shown) [Example 8, N-((4-(4-methylpiperazin-1-yl)-1-(3-(naphthalene-2-sulfonamido)-3-phenylpropanoyl)piperidin-4-yl)methyl)-2-phenylacetamide]
103 | 101 | COc1cc(C)c(S(=O)(=O)N(C)CCOCC(=O)N2CCC(CNC(C)=O)(N3CCN(C)CC3)CC2)c(C)c1 [Example 31, N-((1-(2-(2-(4-methoxy-N,2,6-trimethylphenylsulfonamido)ethoxy)acetyl)-4-(4-methylpiperazin-1-yl)piperidin-4-yl)methyl)acetamide]
100 | 103 | COc1cc(C)c(S(=O)(=O)N(C)CCOCC(=O)N2CCC(CNC(=O)c3ccncc3)(N3CCN(C)CC3)CC2)c(C)c1C [Example 51, N-((1-(2-(2-(4-Methoxy-N,2,3,6-tetramethylphenylsulfonamido)ethoxy)acetyl)-4-(4-methylpiperazin-1-yl)piperidin-4-yl)methyl)isonicotinamide]
11 | 94 | CN1CCN(C2(CNC(=O)c3cccnc3)CCN(C(=O)CC3CCCCN3S(=O)(=O)c3cccc(C(F)(F)F)c3)CC2)CC1 (stereo not shown) [Example 39, N-((4-(4-methylpiperazin-1-yl)-1-(2-(1-(3-(trifluoromethyl)phenylsulfonyl)-piperidin-2-yl)acetyl)piperidin-4-yl)methyl)nicotinamide]
103 | 101 | COc1cc(C)c(S(=O)(=O)N(C)CCOCC(=O)N2CCC(CNC(=O)c3ccccn3)(N3CCN(C)CC3)CC2)c(C)c1 [Example 25, N-((1-(2-(2-(4-methoxy-N,2,6-trimethylphenylsulfonamido)ethoxy)acetyl)-4-(4-methylpiperazin-1-yl)piperidin-4-yl)methyl)picolinamide]
102 | 104 | COc1cc(C)c(S(=O)(=O)N2CCCCC2COCC(=O)N2CCC(CNC(=O)c3ccccc3)(N3CCN(C)CC3)CC2)c(C)c1 (stereo not shown) [Example 5, N-((1-(2-((1-(4-methoxy-2,6-dimethylphenylsulfonyl)piperidin-2-yl)methoxy)acetyl)-4-(4-methylpiperazin-1-yl)piperidin-4-yl)methyl)benzamide]
50 | 73 | CN1CCN(C2(CNC(=O)c3cccnc3)CCN(C(=O)CC(NS(=O)(=O)c3ccc4ccccc4c3)c3ccccc3)CC2)CC1 (stereo not shown) [Example 38, N-((4-(4-methylpiperazin-1-yl)-1-(3-(naphthalene-2-sulfonamido)-3-phenylpropanoyl)piperidin-4-yl)methyl)nicotinamide]
104 | 101 | COc1cc(C)c(S(=O)(=O)N(C)CCOCC(=O)N2CCC(CNC(=O)c3cccnc3)(N3CCN(C)CC3)CC2)c(C)c1 [Example 32, N-((1-(2-(2-(4-methoxy-N,2,6-trimethylphenylsulfonamido)ethoxy)acetyl)-4-(4-methylpiperazin-1-yl)piperidin-4-yl)methyl)nicotinamide]
102 | 102 | COc1cc(C)c(S(=O)(=O)N2CCCCC2COCC(=O)N2CCC(CNC(=O)c3ccncc3)(N3CCN(C)CC3)CC2)c(C)c1 (stereo not shown) [Example 28, N-((1-(2-((1-(4-methoxy-2,6-dimethylphenylsulfonyl)piperidin-2-yl)methoxy)acetyl)-4-(4-methylpiperazin-1-yl)piperidin-4-yl)methyl)-isonicotinamide]
102 | 83 | CN1CCN(C2(CNC(=O)c3ccccn3)CCN(C(=O)CC(NS(=O)(=O)c3ccc4ccccc4c3)c3ccccc3)CC2)CC1 (stereo not shown) [Example 19, N-((4-(4-methylpiperazin-1-yl)-1-(3-(naphthalene-2-sulfonamido)-3-phenylpropanoyl)piperidin-4-yl)methyl)picolinamide]
102 | 75 | CC(=O)NCC1(N2CCN(c3ccncc3)CC2)CCN(C(=O)CCC2CCCCN2S(=O)(=O)c2cc(C)c(Cl)cc2C)CC1 (stereo not shown) [Example 11, N-((1-(3-(1-(4-chloro-2,5-dimethylphenylsulfonyl)piperidin-2-yl)propanoyl)-4-(4-(pyridin-4-yl)piperazin-1-yl)piperidin-4-yl)methyl)acetamide]
100 | 102 | COc1cc(C)c(S(=O)(=O)N(CCOCC(=O)N2CCC(CNC(=O)c3ccncc3)(N3CCN(C4CC4)CC3)CC2)C2CC2)c(C)c1 [Example 44, N-((1-(2-(2-(N-Cyclopropyl-4-methoxy-2,6-dimethylphenylsulfonamido)ethoxy)acetyl)-4-(4-cyclopropylpiperazin-1-yl)piperidin-4-yl)methyl)isonicotinamide]

Reference: patent US8541573B2, “Substituted sulfonamide compounds” (Gruenenthal GmbH, priority 2008, dated 2013)
